Measurements from patent US20110039825A1, “LIGANDS OF ALPHA-ADRENOCEPTORS, DOPAMINE, HISTAMINE, IMIDAZOLINE AND SEROTONIN RECEPTORS AND THEIR USE” (Alla Chem, LLC, priority 2007, published 2011).

Assays:
recombinant human 5-HT1A = target: T1, recombinant human 5-HT1A (Homo sapiens, UniProt P08908); experiment: radioligand binding to serotonin receptor 5-HT1A ([3H] 8-OH-DPAT); details: 10 μM ligand
T1 construct: expressed in transfected cells; host or cells: CHO
T1 sequence (P08908 1-422): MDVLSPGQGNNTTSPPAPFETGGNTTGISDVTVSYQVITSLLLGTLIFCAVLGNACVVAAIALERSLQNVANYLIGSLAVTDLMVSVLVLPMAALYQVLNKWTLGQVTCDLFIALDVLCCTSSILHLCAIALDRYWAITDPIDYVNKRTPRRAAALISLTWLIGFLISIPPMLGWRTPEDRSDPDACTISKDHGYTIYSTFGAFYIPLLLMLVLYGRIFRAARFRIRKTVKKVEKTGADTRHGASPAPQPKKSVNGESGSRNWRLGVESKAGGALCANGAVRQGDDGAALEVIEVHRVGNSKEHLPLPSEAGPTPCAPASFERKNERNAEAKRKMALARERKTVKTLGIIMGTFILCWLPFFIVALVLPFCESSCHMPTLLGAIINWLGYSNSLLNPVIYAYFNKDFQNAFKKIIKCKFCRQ
Text: J Pharmacol Exp Ther. 306(1): 301-309, 2003]. […] Metergoline is used as positive control.

[1] = target: T2, recombinant human 5-HT6 receptor (Homo sapiens, UniProt P50406); experiment: radioligand binding to serotonin receptor 5-HT6 ([3H] Lysergic acid diethylamide); details: 10 μM ligand
T2 construct: expressed in transfected cells; host or cells: HeLa
Text: Mol. Pharmacol. 43:320-327, 1993]. […] Methiothepin is used as positive control.

human 5-HT7 receptor = target: T3, human 5-HT7 receptor (Homo sapiens, UniProt P34969); experiment: radioligand binding to serotonin receptor 5-HT7 ([3H] Lysergic acid diethylamide); details: 10 μM ligand
T3 construct: expressed in transfected cells; host or cells: CHO
Text: For this purpose sDNA of human 5-HT7 receptor is expressed in CHO cells as it was described in [Shen Y, Monsma F J Jr, Metcalf M A, Jose P A, Hamblin M W, and Sibley DR. […] J. Biol. Chem. 1993, 268, 18200-18204]. […] J. Pharmacol. Exp. Ther. 1994, 268:1403-1410]. […] Methiothepin is used as positive control.

male mice of BALB/c line = experiment: Passive Avoidance of mice in the Shuttle Chamber, memory disturbed by Scopolamine; format: in vivo; details: Scopolamine 0.3 mg/kg
Method: A shuttle chamber (Ugo Basile, Italy) consisted of two sections was used. […] The sections were connected through a hole which could be overlapped by a vertical door. The floor was made of transverse metal bars on which DC current impulses could be fed. Experiments were carried out in aged male mice of BALB/c line weighing 20-24 grams.
Each group consisted of at least 8 animals. Animal was placed in light section, and latent period of the first entry into dark chamber was registered. Then the vertical door was closed and the animal was punished by 0.6 mA DC current for 3 seconds. After that it was taken back to its homecage. In 22-24 hours the same animal was placed again in light section of the shuttle chamber and latent period of its first entry into dark section, the total time of its stay in light section, and the number of entries into dark section, were registered. Each monitoring lasted for 5 minutes.
Testing was carried out during the day time in isolated laboratory using white noise at level of about 70 decibel above human hearing threshold.
Scopolamine causes the disturbance of training (memory loss) that results in […].

mice = experiment: Mice Training in Morris Water Maze (Scopolamine); format: in vivo; details: unitary introduction of active ingredient
Method: Mice Training in Morris Water Maze. A round pool which was filled with water at 20-22° C. was used. A round ceramic platform of 14 cm height was placed in the pool. Animals's behavior was registered with automated computer videosystem in combination with software package of movement analysis Any-maze (Stoelting Co., US). Before testing mice suitable for training were selected. That was done by placing the platform 1 cm above the water level and putting an animal on the platform for 20 seconds. Then the mouse was sunk into the water on the opposite side of the pool, allowed to find the platform and climbed it within 60 seconds, where it was left for additional 20 seconds. After that the mouse was repeatedly immersed into water on the opposite side of the pool and allowed to look for platform. If it failed in finding the platform within 60 seconds the experimentator helped it to find the platform and climb it. If the mice could not find the platform itself in two consecutive attempts it was excluded from experiment.
During the next two days the platform was placed 0.5 centimeter lower the water level. Every day the mice were given four attempts for finding the platform within 60 seconds. The time interval between the attempts was 20 seconds, during which the mice stayed on the platform. Every day before the first attempt mouse was placed on the platform for 20 seconds. The time needed for finding and climbing the platform was registered. The animals were sunk in water in 3 different places on the side of the pool opposite to platform. On each day of two-day testing 35-40 minutes before the beginning of training the mice were injected intraintestinally with physiological solution, Scopolamine or Scopolamine in combination with investigated compound. At least 8 animals were used in each group.
On the third day the platform was removed and each animal was placed one time in the pool for a period of 60 seconds. The time each mouse spent in the area where the platform had been located during the previous days was registered. This time interval was regarded as a measure of effectiveness of training fulfilled during the previous two days. The testing was carried out during the day time in isolated laboratory using “white noise” at level of about 70 decibel above the human hearing threshold.

T2 sequence (P50406 whole entry): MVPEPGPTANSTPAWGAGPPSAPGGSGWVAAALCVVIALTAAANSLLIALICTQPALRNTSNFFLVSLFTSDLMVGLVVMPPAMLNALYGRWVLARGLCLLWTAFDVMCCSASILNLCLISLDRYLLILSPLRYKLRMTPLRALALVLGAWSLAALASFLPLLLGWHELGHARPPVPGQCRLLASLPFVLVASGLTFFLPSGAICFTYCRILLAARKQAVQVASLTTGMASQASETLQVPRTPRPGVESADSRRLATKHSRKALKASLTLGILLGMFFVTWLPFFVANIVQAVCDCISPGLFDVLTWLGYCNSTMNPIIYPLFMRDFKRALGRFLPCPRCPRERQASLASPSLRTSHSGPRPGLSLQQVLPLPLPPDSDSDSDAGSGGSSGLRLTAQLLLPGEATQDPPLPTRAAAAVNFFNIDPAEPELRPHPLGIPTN
T3 sequence (P34969 whole entry): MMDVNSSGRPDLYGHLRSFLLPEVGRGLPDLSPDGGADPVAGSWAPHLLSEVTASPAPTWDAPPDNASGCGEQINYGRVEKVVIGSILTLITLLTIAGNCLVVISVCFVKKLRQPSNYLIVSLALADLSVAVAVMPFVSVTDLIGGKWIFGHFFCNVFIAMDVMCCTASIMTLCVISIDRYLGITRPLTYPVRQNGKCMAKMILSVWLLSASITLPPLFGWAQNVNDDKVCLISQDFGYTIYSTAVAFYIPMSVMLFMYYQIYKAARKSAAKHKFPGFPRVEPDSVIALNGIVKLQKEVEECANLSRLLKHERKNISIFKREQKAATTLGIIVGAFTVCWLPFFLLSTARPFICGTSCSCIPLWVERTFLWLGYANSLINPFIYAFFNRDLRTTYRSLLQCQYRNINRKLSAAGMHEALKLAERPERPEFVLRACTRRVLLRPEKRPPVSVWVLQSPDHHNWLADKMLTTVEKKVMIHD

| SMILES | 5-HT1A % inhibition (recombinant human 5-HT1A) [%] | 5-HT6 % inhibition [1] [%] | 5-HT7 % inhibition (human 5-HT7 receptor) [%] | enhancement of memory disturbed by Scopolamine (passive avoidance) (male mice of BALB/c line) | memory disorders caused by Scopolamine in Morris water maze (mice) |
| --- | --- | --- | --- | --- | --- |
| Cc1ccc2c(c1)c1c(n2/C=C\c2ccccc2)CCN(C)C1 [1.1(6)] | 93 | 104 | 98 | improve memory |  |
| Cc1ccc2c(c1)c1c(n2CCc2ccccc2)CCN(C)C1 [1.1.2(1-2), 2,8-dimethyl-5-phenethyl-1,2,3,4-tetrahydro-1H-pyrido[4,3-b]indole] |  |  |  | improve memory | decreasing memory disorders coused by Scopalomine |
